Test results from US11371055B2, “Herbicide resistance genes” (CORTEVA AGRISCIENCE LLC, priority 2005, dated 2022).

Assays:
AAD-12 (v2) [1] = molecular target: T1, AAD-12 (v2) (Delftia acidovorans, UniProt P83309); assay: Colorimetric phenol detection assay of AAD-12 activity; assay type: biochemical; details: for activity of AAD-12 (v2) on substrate (absorbance at 510 nm, FIG. 3): 4.4 μg AAD-12 (v2), 5 minutes
T1 construct: made in house; host or cells: Pseudomonas fluorescens strain MB324 (construct pDAB739)
T1 sequence (P83309 whole entry, looked up, natural form): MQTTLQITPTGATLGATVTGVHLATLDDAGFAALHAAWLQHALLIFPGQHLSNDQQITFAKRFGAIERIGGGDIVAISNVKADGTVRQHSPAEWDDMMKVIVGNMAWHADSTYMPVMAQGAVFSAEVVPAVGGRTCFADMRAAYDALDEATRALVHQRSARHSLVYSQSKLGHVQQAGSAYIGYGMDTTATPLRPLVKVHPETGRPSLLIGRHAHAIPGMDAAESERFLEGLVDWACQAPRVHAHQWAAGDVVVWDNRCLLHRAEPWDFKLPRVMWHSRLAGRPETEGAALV
Procedure: Enzyme activity was measured by colorimetric detection of the product phenol using a protocol modified from that of Fukumori and Hausinger (1993) (J. Biol. Chem. 268: 24311-24317) to enable deployment in a 96-well microplate format. The colorimetric assay has been described for use in measuring the activity of dioxygenases cleaving 2,4-D and dichlorprop to release the product 2,4-dichlorophenol. The color yield from several phenols was compared to that of 2,4-dichlorophenol using the detection method previously described to ascertain which phenol products could be readily detected. […] Pyridinols derived from fluroxypyr and triclopyr produced no significant color. The color yield of 2,4-dichlorophenol was linear and proportional to the concentration of phenol in the assay up to ˜500 μM.
Assays were initiated by addition of the aryloxyalkanoate substrate, enzyme or α-ketoglutarate at time zero. After 5 minutes of incubation at 25° C., the reaction was terminated by addition of 30 μl of a 1:1:1 mix of 50 mM Na EDTA; pH 10 buffer (3.09 g boric acid+3.73 g KCl+44 ml 1 N KOH) and 0.2% 4-aminoantipyrine. Then 10 μl 0.8% potassium ferricyanide was added and after 5 or 10 min, the absorbance at 510 nm was recorded in a spectrophotometric microplate reader. Blanks contained all reagents except for enzyme to account for the occasional slight contamination of some of the substrates by small amounts of phenols.
The results are shown in FIG. 3, which illustrates activity of AAD-12 (v2) on 2,4-D and enantiomers of dichlorprop. 4.4 μg AAD-12 (v2) was incubated with 0.5 mM substrate (1 mM for (R,S)-dichlorprop) and the reaction initiated by addition of α-ketoglutarate. After 5 minutes, the reaction was quenched, and the absorbance at 510 nm determined after addition of colorimetric detection reagents. The background value without enzyme was subtracted.

AAD-12 (v2) [2] = molecular target: T1, AAD-12 (v2); assay: Chloropyridinol detection assay (absorbance at 325 nm); assay type: biochemical; details: 6.8 μg AAD-12 (v2), 1 mM substrate; for Rate (mAU/min): 325 nm, background rate 1.4 mAU/min subtracted
Source text: AAD-12 action on potential substrates such as the herbicide triclopyr containing a substituted pyridine (rather than benzene rings) will release a pyridinol on cleavage of the aryloxyalkanoate bond. Pyridinols were not detected using the aminoantipyrine/ferricyanide phenol detection described in the preceding section. […] This was used to create a continuous microplate-based spectrophotometric assay.
All five pyridyloxyalkanoates were cleaved to release pyridinols by AAD-12 (v2). The rates for the oxypropionate substrates 116844 and 91767 were somewhat faster than those for the corresponding acetates (triclopyr and 93833 respectively) indicating a preference of AAD-12 (v2) for oxypropionate over oxyacetate side chains.

PAT/Cry1F Arabidopsis = assay: Glyphosate postemergence dose response, PAT/Cry1F control; assay type: in vivo, Arabidopsis thaliana; details: 14 DAT
Procedure: (§1) T1 Arabidopsis seed was produced, as previously described, containing the pDAB3759 plasmid (AAD-12 (v1)+EPSPS) which encodes a putative glyphosate resistance trait. T1 transformants were selected using AAD-12 (v1) as the selectable marker as described in example 7.6. T1 plants (individually transformed events) were recovered from the first selection attempt and transferred to three-inch pots in the greenhouse as previously described. Three different control Arabidopsis lines were also tested: wildtype Columbia-0, AAD-12 (v1)+PAT T4 homozygous lines (pDAB724-transformed), and PAT+Cry1F homozygous line (transformed control). The pDAB3759 and pDAB724 transformed plants were pre-selected at the seedling stage for 2,4-D tolerance. Four days after transplanting, plants were evenly divided for foliar treatment by track sprayer as previously described with 0, 26.25, 105, 420, or 1680 g ae/ha glyphosate (Glyphomax Plus, Dow AgroSciences) in water. All treatments were replicated 5 to 20 times. Plants were evaluated 7 and 14 days after treatment.

[3] = tested on: pDAB724 T4 (PAT + AAD-12) Arabidopsis; assay: Glyphosate postemergence dose response, pDAB724 T4; assay type: in vivo, Arabidopsis thaliana; details: 14 DAT
Procedure: as §1

[4] = tested on: Wildtype (Col-0) Arabidopsis; assay: Glyphosate postemergence dose response, wildtype; assay type: in vivo, Arabidopsis thaliana; details: 14 DAT
Procedure: as §1

[5] = tested on: AAD-12 v1 gene + EPSPS + HptII (pDAB3759) T1 Arabidopsis; assay: Glyphosate postemergence dose response, AAD-12 + EPSPS stack; assay type: in vivo, Arabidopsis thaliana; details: 14 DAT
Procedure: as §1

[6] = 26.25 g ae/ha glyphosate postemergence
[7] = 105 g ae/ha glyphosate postemergence
[8] = 420 g ae/ha glyphosate postemergence
[9] = 1680 g ae/ha glyphosate postemergence

CC(Oc1ccc(Cl)cc1Cl)C(=O)O (racemic) [(R,S)-dichlorprop]
activity of AAD-12 (v2) on substrate (absorbance at 510 nm, FIG. 3) (AAD-12 (v2) [1]; 1 mM substrate): excellent activity
Substrate inhibition at 2 mM (AAD-12 (v2) [1]; Phenol detection): 55%
kcat, min^−1 (±SE) (AAD-12 (v2) [1]; Phenol detection): 63.4 (±0.5) min^−1
Km (AAD-12 (v2) [1]; Phenol detection, for (R,S)-dichlorprop calculated assuming 50% of the racemic mixture was available as a substrate, read-out: Km, μM (±SE)): 122 µM

CC(Oc1nc(Cl)c(Cl)cc1Cl)C(=O)O (stereo not shown) [compound 116844]
Rate relative to triclopyr (AAD-12 (v2) [2]): 1.4
Rate (mAU/min) (AAD-12 (v2) [2]): 257 mAU/min

C[C@H](Oc1ccc(Cl)cc1Cl)C(=O)O [(S)-dichlorprop]
activity of AAD-12 (v2) on substrate (absorbance at 510 nm, FIG. 3) (AAD-12 (v2) [1]; 0.5 mM substrate): excellent activity

O=C(O)CNCP(=O)(O)O [glyphosate]
% Injury 20-40% (number of individuals) (PAT/Cry1F Arabidopsis; [6]): 0
% Injury <20% (number of individuals) (PAT/Cry1F Arabidopsis; [6]): 0
% Injury >40% (number of individuals) (PAT/Cry1F Arabidopsis; [6]): 5
% Injury Ave (PAT/Cry1F Arabidopsis; [6]): 67%
% Injury 20-40% (number of individuals) (PAT/Cry1F Arabidopsis; [7]): 0
% Injury <20% (number of individuals) (PAT/Cry1F Arabidopsis; [7]): 0
% Injury >40% (number of individuals) (PAT/Cry1F Arabidopsis; [7]): 5
% Injury Ave (PAT/Cry1F Arabidopsis; [7]): 100%
% Injury 20-40% (number of individuals) (PAT/Cry1F Arabidopsis; [8]): 0
% Injury <20% (number of individuals) (PAT/Cry1F Arabidopsis; [8]): 0
% Injury >40% (number of individuals) (PAT/Cry1F Arabidopsis; [8]): 5
% Injury Ave (PAT/Cry1F Arabidopsis; [8]): 100%
% Injury 20-40% (number of individuals) (PAT/Cry1F Arabidopsis; [9]): 0
% Injury <20% (number of individuals) (PAT/Cry1F Arabidopsis; [9]): 0
% Injury >40% (number of individuals) (PAT/Cry1F Arabidopsis; [9]): 5
% Injury Ave (PAT/Cry1F Arabidopsis; [9]): 100%
% Injury 20-40% (number of individuals) [3, 6]: 0
% Injury <20% (number of individuals) [3, 6]: 0
% Injury >40% (number of individuals) [3, 6]: 5
% Injury Ave [3, 6]: 66%
% Injury 20-40% (number of individuals) [3, 7]: 0
% Injury <20% (number of individuals) [3, 7]: 0
% Injury >40% (number of individuals) [3, 7]: 5
% Injury Ave [3, 7]: 100%
% Injury 20-40% (number of individuals) [3, 8]: 0
% Injury <20% (number of individuals) [3, 8]: 0
% Injury >40% (number of individuals) [3, 8]: 5
% Injury Ave [3, 8]: 100%
% Injury 20-40% (number of individuals) [3, 9]: 0
% Injury <20% (number of individuals) [3, 9]: 0
% Injury >40% (number of individuals) [3, 9]: 5
% Injury Ave [3, 9]: 100%
% Injury 20-40% (number of individuals) [4, 6]: 0
% Injury <20% (number of individuals) [4, 6]: 0
% Injury >40% (number of individuals) [4, 6]: 5
% Injury Ave [4, 6]: 75%
% Injury 20-40% (number of individuals) [4, 7]: 0
% Injury <20% (number of individuals) [4, 7]: 0
% Injury >40% (number of individuals) [4, 7]: 5
% Injury Ave [4, 7]: 100%
% Injury 20-40% (number of individuals) [4, 8]: 0
% Injury <20% (number of individuals) [4, 8]: 0
% Injury >40% (number of individuals) [4, 8]: 5
% Injury Ave [4, 8]: 100%
% Injury 20-40% (number of individuals) [4, 9]: 0
% Injury <20% (number of individuals) [4, 9]: 0
% Injury >40% (number of individuals) [4, 9]: 5
% Injury Ave [4, 9]: 100%
% Injury 20-40% (number of individuals) [5, 6]: 2
% Injury <20% (number of individuals) [5, 6]: 13
% Injury >40% (number of individuals) [5, 6]: 1
% Injury Ave [5, 6]: 11%
% Injury 20-40% (number of individuals) [5, 7]: 1
% Injury <20% (number of individuals) [5, 7]: 10
% Injury >40% (number of individuals) [5, 7]: 5
% Injury Ave [5, 7]: 34%
% Injury 20-40% (number of individuals) [5, 8]: 6
% Injury <20% (number of individuals) [5, 8]: 5
% Injury >40% (number of individuals) [5, 8]: 5
% Injury Ave [5, 8]: 44%
% Injury 20-40% (number of individuals) [5, 9]: 0
% Injury <20% (number of individuals) [5, 9]: 0
% Injury >40% (number of individuals) [5, 9]: 16
% Injury Ave [5, 9]: 85%

CC(Oc1nc(F)c(Cl)cc1Cl)C(=O)O (stereo not shown) [compound 91767]
Rate relative to triclopyr (AAD-12 (v2) [2]): 0.8
Rate (mAU/min) (AAD-12 (v2) [2]): 190 mAU/min
